# Reference: ChEMBL document CHEMBL3882243, “Biphenyl compounds useful as muscarinic receptor antagonists” (2005)
# Columns and labels:
# [1] = biological target: Muscarinic acetylcholine receptor M3 (Homo sapiens, UniProt P20309); assay: Displacement of [3H]-NMS from human recombinant M3 receptor expressed in CHO cell membranes measured after 60 mins by topcount liquid scintillation counting
# Cavia porcellus = assay: Bronchoprotective activity in Dunkan-Hartley guinea pig model of acetylcholine-induced bronchoconstriction assessed as efficacious dose that limited bronchrestriction response to 50 ug/mL dose of acetylcholine to doubling of baseline pulmonary resistance administered via nebulization for 10 mins measured at 1.5 hrs post dose by whole body plethysmography; type: functional
# Sequence of Muscarinic acetylcholine receptor M3 (P20309 whole entry): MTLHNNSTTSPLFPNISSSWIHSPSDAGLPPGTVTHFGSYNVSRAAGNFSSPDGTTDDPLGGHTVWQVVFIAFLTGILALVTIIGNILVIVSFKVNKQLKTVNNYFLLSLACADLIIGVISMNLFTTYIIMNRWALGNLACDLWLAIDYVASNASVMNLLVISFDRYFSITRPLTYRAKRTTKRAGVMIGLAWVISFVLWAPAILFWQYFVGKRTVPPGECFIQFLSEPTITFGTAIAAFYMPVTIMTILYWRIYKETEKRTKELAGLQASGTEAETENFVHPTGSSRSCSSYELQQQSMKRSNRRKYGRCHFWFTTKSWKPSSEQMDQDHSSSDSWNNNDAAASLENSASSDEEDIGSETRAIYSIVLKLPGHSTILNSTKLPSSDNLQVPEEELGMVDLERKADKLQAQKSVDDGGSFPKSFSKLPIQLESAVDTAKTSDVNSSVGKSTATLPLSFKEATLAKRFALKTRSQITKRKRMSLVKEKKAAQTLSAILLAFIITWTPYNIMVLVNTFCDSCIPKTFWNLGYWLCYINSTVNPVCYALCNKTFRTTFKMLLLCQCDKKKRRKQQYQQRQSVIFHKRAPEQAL
Ki [1] [nM],Structure (SMILES),ED (Cavia porcellus) [µg/mL]
< 5,CCN(CCN1CCC(OC(=O)Nc2ccccc2-c2ccccc2)CC1)C(=O)c1ccc(CN2CCC(C(N)=O)CC2)cc1,–
–,CN(CCN1CCC(OC(=O)Nc2ccccc2-c2ccccc2)CC1)C(=O)c1ccc(CN2CCC(C(N)=O)CC2)cc1 [REVEFENACIN],<200
